Data published in patent US10131652B2, “Pyrimidinyloxy benzene derivatives as herbicides” (E. I. DU PONT DE NEMOURS AND COMPANY, priority 2014, dated 2018).

Legend:
Format in all cases: in vivo
[1] = tested on: Italian ryegrass (Lolium multiflorum); assay: Test B pre-/postemergence plant response
Procedure, shortened: (§1)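 Ratings reflect visual injury versus untreated controls, from 0 for no effect to 100 for complete control, assessed roughly 10 days after treatment. Formulation: non-phytotoxic solvent mix with surfactant; pre- and postemergence sprays on plants grown in loam soil and sand.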

[2] = tested on: barnyardgrass (Echinochloa crus-galli); assay: Test B pre-/postemergence plant response
Procedure, shortened: as §1

corn (Zea mays) = assay: Test B pre-/postemergence plant response
Procedure, shortened: as §1

[3] = tested on: giant foxtail (Setaria faberii); assay: Test B pre-/postemergence plant response
Procedure, shortened: as §1

kochia (Kochia scoparia) = assay: Test B pre-/postemergence plant response
Procedure, shortened: as §1

[4] = tested on: pigweed (Amaranthus retroflexus); assay: Test B pre-/postemergence plant response
Procedure, shortened: as §1

[5] = tested on: ragweed (common ragweed, Ambrosia elatior); assay: Test B pre-/postemergence plant response
Procedure, shortened: as §1

[6] = tested on: wheat (Triticum aestivum); assay: Test B pre-/postemergence plant response
Procedure, shortened: as §1

[7] = tested on: blackgrass (Alopecurus myosuroides); assay: Test B postemergence plant response
Procedure, shortened: (§2)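 Seedlings in a loam soil and sand mix received a postemergence application of the formulated chemicals at the one- to two-leaf stage (2–10 cm tall). They were kept in a greenhouse for roughly 10 days, then scored for injury relative to untreated plants, 0 meaning no effect and 100 complete control.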

[8] = tested on: galium (catchweed bedstraw, Galium aparine); assay: Test B postemergence plant response
Procedure, shortened: as §2

[9] = tested on: barnyardgrass (Echinochloa crus-galli); assay: Test C flooded paddy test plant response; conditions: Flood, 250 g ai/ha; scale of 0 to 100 where 0 is no effect and 100 is complete control; 13 to 15 days
Procedure, shortened: (§3)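 Scored visually on a 0–100 scale (100 = complete control) against untreated plants 13 to 15 days after treatment in the greenhouse. Compounds went into paddy water of pots flooded to 3 cm, holding 2-leaf-stage plants.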

[10] = tested on: ducksalad (Heteranthera limosa); assay: Test C flooded paddy test plant response; conditions: Flood, 250 g ai/ha; scale of 0 to 100 where 0 is no effect and 100 is complete control; 13 to 15 days
Procedure, shortened: as §3

rice (Oryza sativa) = assay: Test C flooded paddy test plant response; conditions: Flood, 250 g ai/ha; scale of 0 to 100 where 0 is no effect and 100 is complete control; 13 to 15 days
Procedure, shortened: as §3

[11] = tested on: small-flower umbrella sedge (Cyperus difformis); assay: Test C flooded paddy test plant response; conditions: Flood, 250 g ai/ha; scale of 0 to 100 where 0 is no effect and 100 is complete control; 13 to 15 days
Procedure, shortened: as §3

[12] = 31 g ai/ha, Preemergence, 0 to 100 scale where 0 is no effect and 100 is complete control
[13] = 125 g ai/ha, postemergence, 0 to 100 scale, 0 no effect, 100 complete control
[14] = Postemergence, 31 g ai/ha, 0 to 100 scale (0 no effect, 100 complete control)
[15] = Preemergence, 125 g ai/ha, 0 to 100 scale (0 no effect, 100 complete control)
[16] = Postemergence, 500 g ai/ha, 0 to 100 scale (0 no effect, 100 complete control)
[17] = Preemergence, 500 g ai/ha, 0 to 100 scale where 0 is no effect and 100 is complete control

Row | Structure (SMILES) | Plant response rating, Ryegrass, Italian [1, 13] | Ryegrass, Italian plant response rating [1, 15] | Plant response rating, Barnyardgrass [2, 13] | Barnyardgrass plant response rating [2, 15] | Plant response rating, Corn (corn (Zea mays); [13]) | Plant response rating, Foxtail, Giant [3, 13] | Foxtail, Giant plant response rating [3, 15] | Plant response rating, Kochia (kochia (Kochia scoparia); [13]) | Kochia plant response rating (kochia (Kochia scoparia); [15]) | Plant response rating, Pigweed [4, 13] | Pigweed plant response rating [4, 15] | Plant response rating, Ragweed [5, 13] | Ragweed plant response rating [5, 15] | Plant response rating, Wheat [6, 13] | Plant response rating, Blackgrass [7, 13] | Plant response rating, Galium [8, 13] | Barnyardgrass plant response rating [9] | Ducksalad plant response rating [10] | Rice plant response rating (rice (Oryza sativa)) | Sedge, Umbrella plant response rating [11] | also measured
1 | Clc1cnc(Oc2ccccc2-c2ccno2)nc1 [Compound 154] | 0 | 0 | 0 | 0 | 0 | 0 | 0 | 0 | 0 | 0 | 0 | 0 | 0 | 0 | 0 | 0 | 0 | 0 | 0 | 0 | Plant response rating, Ryegrass, Italian [1, 12]: 0; Plant response rating, Ryegrass, Italian [1, 14]: 0; Plant response rating, Barnyardgrass [2, 12]: 0; Plant response rating, Barnyardgrass [2, 14]: 0; Plant response rating, Corn (corn (Zea mays); [14]): 0; Plant response rating, Foxtail, Giant [3, 12]: 0; Plant response rating, Foxtail, Giant [3, 14]: 0; Plant response rating, Kochia (kochia (Kochia scoparia); [12]): 0; Plant response rating, Kochia (kochia (Kochia scoparia); [14]): 0; Plant response rating, Pigweed [4, 12]: 0; Plant response rating, Pigweed [4, 14]: 0; Plant response rating, Ragweed [5, 12]: 0; Plant response rating, Ragweed [5, 14]: 0; Plant response rating, Wheat [6, 14]: 0; Plant response rating, Blackgrass [7, 14]: 0; Plant response rating, Galium [8, 14]: 0
2 | Brc1cnc(Oc2ccccc2-c2ccno2)nc1 [Compound 155] | 0 | 0 | 0 | 0 | 0 | 0 | 0 | 0 | 0 | 0 | 0 | 0 | 0 | 0 | 0 | 0 | 0 | 0 | 0 | 0 | Plant response rating, Ryegrass, Italian [1, 12]: 0; Plant response rating, Ryegrass, Italian [1, 14]: 0; Plant response rating, Barnyardgrass [2, 12]: 0; Plant response rating, Barnyardgrass [2, 14]: 0; Plant response rating, Corn (corn (Zea mays); [14]): 0; Plant response rating, Foxtail, Giant [3, 12]: 0; Plant response rating, Foxtail, Giant [3, 14]: 0; Plant response rating, Kochia (kochia (Kochia scoparia); [12]): 0; Plant response rating, Kochia (kochia (Kochia scoparia); [14]): 0; Plant response rating, Pigweed [4, 12]: 0; Plant response rating, Pigweed [4, 14]: 0; Plant response rating, Ragweed [5, 12]: 0; Plant response rating, Ragweed [5, 14]: 0; Plant response rating, Wheat [6, 14]: 0; Plant response rating, Blackgrass [7, 14]: 0; Plant response rating, Galium [8, 14]: 0
3 | FC(F)(F)c1ccnc(-c2c(Cl)cccc2Oc2ncc(Cl)cn2)c1 [Compound 159] | 0 | 0 | 0 | 0 | 20 | 0 | 20 | 20 | 0 | 90 | 40 | 0 | 0 | 20 | 0 | 70 | 0 | 0 | 0 | 0 | Plant response rating, Ryegrass, Italian [1, 16]: 0; Plant response rating, Ryegrass, Italian [1, 17]: 0; Plant response rating, Barnyardgrass [2, 16]: 20; Plant response rating, Barnyardgrass [2, 17]: 60; Plant response rating, Corn (corn (Zea mays); [16]): 30; Plant response rating, Foxtail, Giant [3, 16]: 70; Plant response rating, Foxtail, Giant [3, 17]: 90; Plant response rating, Kochia (kochia (Kochia scoparia); [16]): 80; Plant response rating, Kochia (kochia (Kochia scoparia); [17]): 30; Plant response rating, Pigweed [4, 16]: 100; Plant response rating, Pigweed [4, 17]: 100; Plant response rating, Ragweed [5, 16]: 0; Plant response rating, Ragweed [5, 17]: 0; Plant response rating, Wheat [6, 16]: 20; Plant response rating, Blackgrass [7, 16]: 30; Plant response rating, Galium [8, 16]: 100
